How the values were obtained:
AAK1 = AAK1 (Homo sapiens (Human), UniProt Q2M2I8); experiment: In vitro AAK1 enzyme activity assay (ADP-Glo); format: biochemical; details: read-out: Inhibitory activity against AAK1 IC50
Description: Compound stock solution (concentration: 10 mM, dissolved in DMSO) was diluted with DMSO to 0.2 mM and then diluted with DMSO in 5-fold gradient to obtain compound solutions with 10 concentrations. Subsequently, the compound solutions with different concentrations were diluted 50-fold in 1×kinase reaction buffer (containing 40 mM Tris, 20 mM MgCl2, 0.1% BSA and 0.5 mM DTT) for later use. AAK1 (Signalchem, Cat #A01-11G-10) was diluted with 1×kinase reaction buffer to 2-fold the final concentration (final concentrations: 30 nM and 28 nM). AAK1 was added to a 384-well white plate at 2 μL/well, and the compounds were then added at 1 μL/well. The plate was sealed with a plate-sealing film, centrifuged at 1000 rpm for 30 seconds and then placed at room temperature for 10 minutes. A mixed solution of ATP (Promega, Cat #V914B) and substrate Micro2 (GenScript, Cat #PE0890) was formulated at 4-fold the final concentration (for AAK1, the corresponding final concentrations of ATP: 15 μM and 5 μM, and the corresponding final concentration of Micro2: 0.1 mg/mL). To the reaction plate was added the mixed solution of ATP and the substrate at 1 μL/well. The plate was sealed with a plate-sealing film and centrifuged at 1000 rpm for 30 seconds. The reaction was carried out at room temperature for 60 minutes (AAK1). ADP-Glo (Promega, Cat #V9102) was transferred to the 384-well plate at 4 μL/well and centrifugation was carried out at 1000 rpm for 1 minute. The mixture was incubated at 25° C. for 40 minutes. A detection solution was transferred to the 384-well plate at 8 μL/well and centrifugation was carried out at 1000 rpm for 1 minute. The resulting mixture was incubated at 25° C. for 40 minutes. The RLU (Relative luminescence unit) signal values were read using a Biotek multilable microplate reader and the percent inhibition was calculated according to the following formula: [1−(LUMcompound−LUMpositive control)/(LUMnegative control−LUMpositive control)]×100. IC50 values were calculated using Graphpad 7.0 software using a four-parameter non-linear fit equation.

[1] = biological target: hERG potassium ion channel (Homo sapiens (Human), UniProt Q12809); experiment: Test for hERG potassium ion channel (manual whole cell patch-clamp); format: cell-based; details: for IC50: CHO cells stably expressing hERG, read-out: IC50 (hERG potassium channel current); for inhibition at 40 µM: human, CHO cells stably expressing hERG potassium channel, read-out: Inhibition rate at the highest concentration tested (hERG potassium channel current)
Text: Experimental platform: electrophysiological manual patch-clamp system
Cell line: Chinese hamster ovary (CHO) cell lines stably expressing hERG potassium ion channel
Experimental method: In CHO (Chinese Hamster Ovary) cells stably expressing hERG potassium channel, whole cell patch-clamp technique was used to record hERG potassium channel current at room temperature. The glass microelectrode was made of a glass electrode blank (BF150-86-10, Sutter) by a puller. The tip resistance after filling the liquid in the electrode was about 2-5 MΩ. The glass microelectrode can be connected to the patch-clamp amplifier by inserting the glass microelectrode into an amplifier probe. The clamping voltage and data recording were controlled and recorded by the pClamp 10 software through a computer. The sampling frequency was 10 kHz, and the filtering frequency was 2 kHz. After the whole cell records were obtained, the cells were clamped at −80 mV, and the step voltage that induced the hERG potassium current (IhERG) was depolarized from −80 mV to +20 mV for 2 s, then repolarized to −50 mV, and returned to −80 mV after 1 s. This voltage stimulation was given every 10 s, and the administration process was started after the hERG potassium current was confirmed to be stable (at least 1 minute). The compound was administered for at least 1 minute at each test concentration, and at least 2 cells (n≥2) were tested at each concentration.
Data processing: Data analysis processing was carried out by using pClamp 10, GraphPad Prism 5 and Excel software. The inhibition degree of hERG potassium current (peak value of hERG tail current induced at −50 mV) at different compound concentrations was calculated by the following formula: […]
wherein, Inhibition % represents the percentage of inhibition of hERG potassium current by the compound, and I and Io represent the amplitude of hERG potassium current after and before dosing, respectively.
Compound IC50 was calculated using GraphPad Prism 5 software by fitting according to the following equation: […]
Among the equation, X represents the Log value of the tested concentration of the test sample, Y represents the inhibition percentage at the corresponding concentration, and Bottom and Top represent the minimum and maximum inhibition percentage, respectively.

[2] = test system: SNL-induced mouse model of neuropathic pain; experiment: Spinal nerve ligation (SNL)-induced mouse model of neuropathic pain, mechanical pain threshold (MPT); format: in vivo, C57BL/6J mice; details: for Time at which analgesic efficacy reached the peak after the administration / Effect on pain threshold (MPT) of mice after SNL modelling: 10 mg/kg intragastrically, single administration; for Effect on pain threshold (MPT) of mice after SNL modelling: 1, 3 and 6 hours after administration
Text: Male C57BL/6J mice (8 weeks old) purchased from Jinan Pengyue Experimental Animal Breeding Co., Ltd. were adaptively raised for one week and then the models were established. The specific establishment method comprises the following steps: • 1) disinfecting the surgical instrument and ligature; • 2) anesthetizing the mice with isoflurane and then placing the mice on the operating table in the prone position; • 3) shaving the fur near the hip bones of the mice and preparing the skin, and making an incision of about 2 cm along the spine; • 4) isolating the fascia along the spine, performing blunt dissection of the muscles, and exposing the transverse process of L5; • 5) carefully cutting the transverse process of L5 with forceps and exposing the L5 spinal nerve; • 6) carefully isolating the L5 nerve with a glass dissecting needle, and ligating the L5 nerve with a 5-0 ligature; and • 7) suturing the muscles and skin and disinfecting same with iodophor.
The mice that were unsuccessful in modeling were eliminated the next day after modeling (marker for successful modeling: mice with their hind paws curled up). After modeling, the mice were stroked for 3 to 5 minutes every day to ensure that the animals were familiar with the experimenter, and then the mice were placed on a metal pain measuring frame for 40 to 60 minutes of adaptation. After 3 days of acclimatization, Von Frey filaments (Aesthesio®; 0.16 g, 0.4 g, 0.6 g, 1.0 g, 1.4 g and 2.0 g) were used to test the pre-administration baseline values of the animals (Ascending testing approach). Each animal was tested twice and average values were taken, with intervals of at least 5 minutes. The animals were grouped according to the baseline values (10 animals per group). After the grouping, LX-9211 (1 and 10 mg/kg), compound 3 (1 and 10 mg/kg) or vehicle (40% PEG-400+10% ethanol+15% Tween 80+35% physiological saline) were administered intragastrically. The mice were tested for the mechanical pain threshold (MPT) at 1, 3 and 6 hours after the administration. Time-MPT curve was plotted using GraphPad 8.3.0, and statistical analysis was performed.

[3] = Mouse brain/blood ratio test; format: in vivo; details: ICR mice, i.g. (10 mg/kg); for Kp / AUC(0-t): male, mouse, po; for Kp: brain/plasma; for AUC(0-t): plasma, read-out: Plasma AUC0-t
Description: 5.1 Experimental animals: Male ICR mice, 20-25 g, 9 mice/compound. Purchased from Chengdu Ddossy Experimental Animals Co., Ltd.
5.2 Experimental design: on the day of the experiment, 18 ICR mice were randomly grouped according to their body weights. The animals were fasted with water available for 12 to 14 h one day before the administration, and were fed 4 h after the administration;
After intragastric administration, whole blood and brain tissue were collected at 0.5 h, 4 h and 24 h, and the whole blood was centrifuged to separate the plasma. The brain tissue was rinsed with cold physiological saline to remove the residual blood on the surface, drained out and then homogenized. Before analysis and detection, all samples were stored at −80° C. The samples were analyzed quantitatively by LC-MS/MS.

[4] = Pharmacokinetic test in beagle dogs; format: in vivo; details: for AUC(0-t) / clearance / Vd: male, dog, plasma; for Vd: read-out: Vdss
Description: Experimental animals: male beagle dogs, about 8-11 kg, 6 beagle dogs/compound, purchased from Beijing Marshall Biotechnology Co., Ltd.
Experimental method: on the day of the experiment, 12 beagle dogs were randomly grouped according to their body weights. the animals were fasted with water available for 12 to 14 h one day before the administration, and were fed 4 h after the administration; and the administration was performed according to Table 2.
Before and after the administration, 1 ml of blood was taken from the jugular veins or limb veins, and placed in an EDTAK2 centrifuge tube. Centrifugation was performed at 5000 rpm at 4° C. for 10 min, and plasma was collected. Blood sampling time points for both the LX9211 intravenous administration group and intragastric administration group include: 0 min, 5 min, 15 min, 30 min, 1 h, 2 h, 4 h, 6 h, 8 h, 10 h, 12 h, and 24 h, and blood sampling time points for both the compound 19 intravenous administration group and intragastric administration group include: 0 min, 5 min, 15 min, 30 min, 1 h, 2 h, 4 h, 6 h, 8 h, 10 h, 12 h, 24 h, and 48 h. Before analysis and detection, all samples were stored at −80° C. The samples were analysed quantitatively by LC-MS/MS.

Chain of hERG potassium ion channel (Q12809 whole entry): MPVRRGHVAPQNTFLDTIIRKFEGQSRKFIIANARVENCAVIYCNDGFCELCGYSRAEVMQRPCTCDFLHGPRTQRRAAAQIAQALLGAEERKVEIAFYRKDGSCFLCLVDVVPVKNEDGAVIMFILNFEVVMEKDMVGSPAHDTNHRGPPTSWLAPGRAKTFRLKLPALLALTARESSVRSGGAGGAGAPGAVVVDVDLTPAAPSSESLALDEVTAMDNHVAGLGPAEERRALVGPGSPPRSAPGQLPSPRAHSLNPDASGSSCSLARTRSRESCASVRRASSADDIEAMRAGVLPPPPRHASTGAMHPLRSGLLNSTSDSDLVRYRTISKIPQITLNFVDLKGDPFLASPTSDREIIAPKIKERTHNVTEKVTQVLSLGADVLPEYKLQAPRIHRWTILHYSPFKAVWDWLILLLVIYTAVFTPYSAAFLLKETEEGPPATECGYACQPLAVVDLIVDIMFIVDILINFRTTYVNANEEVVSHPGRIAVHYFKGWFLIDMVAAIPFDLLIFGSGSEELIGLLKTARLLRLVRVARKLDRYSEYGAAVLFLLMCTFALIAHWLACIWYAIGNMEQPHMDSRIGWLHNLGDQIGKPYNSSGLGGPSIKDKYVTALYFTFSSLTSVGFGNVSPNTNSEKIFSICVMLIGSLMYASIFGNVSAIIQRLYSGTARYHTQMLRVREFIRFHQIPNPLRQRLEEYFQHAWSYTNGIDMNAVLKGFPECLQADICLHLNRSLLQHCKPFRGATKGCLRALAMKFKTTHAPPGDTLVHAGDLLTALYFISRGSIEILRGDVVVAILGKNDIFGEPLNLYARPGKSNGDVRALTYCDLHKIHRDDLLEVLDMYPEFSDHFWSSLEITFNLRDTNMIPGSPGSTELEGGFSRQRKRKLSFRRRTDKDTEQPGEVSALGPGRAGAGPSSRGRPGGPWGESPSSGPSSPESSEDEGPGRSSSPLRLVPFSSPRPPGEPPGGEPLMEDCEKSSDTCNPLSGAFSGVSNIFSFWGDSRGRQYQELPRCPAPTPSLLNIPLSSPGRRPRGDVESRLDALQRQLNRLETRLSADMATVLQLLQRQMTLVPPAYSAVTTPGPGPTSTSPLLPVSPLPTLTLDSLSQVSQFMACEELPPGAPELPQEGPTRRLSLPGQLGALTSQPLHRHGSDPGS
Chain of AAK1 (Q2M2I8 27-365): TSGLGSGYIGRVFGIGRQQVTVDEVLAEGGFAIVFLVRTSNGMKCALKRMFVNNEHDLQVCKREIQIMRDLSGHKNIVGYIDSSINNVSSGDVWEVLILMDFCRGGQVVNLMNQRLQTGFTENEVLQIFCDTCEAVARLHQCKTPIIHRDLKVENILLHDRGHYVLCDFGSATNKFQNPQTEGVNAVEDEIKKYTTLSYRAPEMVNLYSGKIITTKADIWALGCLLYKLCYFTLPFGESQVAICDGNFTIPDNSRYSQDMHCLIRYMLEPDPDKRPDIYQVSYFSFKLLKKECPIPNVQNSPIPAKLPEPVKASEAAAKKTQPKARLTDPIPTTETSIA

Row | IC50 (AAK1) [µM] | Brain tissue AUC0-t [3] [ng·h/g] | Kp [3] | AUC(0-t) [3] [ng·h/mL] | F ([4]; i.g. (3 mg/kg)) [%] | AUC(0-t) ([4]; iv, i.v. (1 mg/kg)) [ng·h/mL] | clearance ([4]; iv, i.v. (1 mg/kg)) [mL/min/kg] | Vd ([4]; iv, i.v. (1 mg/kg)) [L/kg] | AUC(0-t) ([4]; po, i.g. (3 mg/kg)) [ng·h/mL] | Compound | IC50 [1] [µM] | inhibition at 40 µM [1] [%] | Time at which analgesic efficacy reached the peak after the administration [2] [h] | Effect on pain threshold (MPT) of mice after SNL modelling [2] | Analgesic efficacy compared with LX-9211 ([2]; 10 mg/kg, at 3 and 6 hours after the administration)
1 | 0.0109 | 36853 | 64.5 | 572 | – | – | – | – | – | C=C(C)C[C@](C)(N)COc1ccc(-c2ccnc(C(F)F)c2)nc1C(F)F [Compound 3, (S)-1-((2′,6-bis(difluoromethyl)-[2,4′-bipyridin]-5-yl)oxy)-2,4-dimethylpent-4-en-2-amine] | 8.75 | 86.6 ± 1.77 | 3 | effectively increased the pain threshold | better efficacy than LX-9211
2 | – | 110424 | 16.6 | 6640 | 22.2 ± 8.1 | 751 ± 204 | 22.2 ± 7.7 | 9.08 ± 1.4 | 500 ± 183 | CC(C)C[C@](C)(N)COc1ccc(-c2ccnc(C(F)F)c2)nc1C(F)F [LX-9211, reference compound] | 1.82 | 102 ± 4.08 | 1 | effectively increased the pain threshold | –
3 | 0.0377 | – | – | – | 113 ± 6.9 | 398 ± 94 | 39.8 ± 10 | 23.6 ± 3.8 | 1350 ± 83 | COC(=O)Nc1cc(-c2ccc(OC[C@@](C)(N)CC(C)(C)F)c(C(F)F)n2)ccn1 [Compound 19, Methyl (S)-(5-((2-amino-4-fluoro-2,4-dimethylpentyl)oxy)-6-(difluoromethyl) [2,4′-bipyridin]-2′-yl)carbamate] | 24.1 | 68.9 ± 1.8 | – | – | –

Source: patent publication US20240343720A1, “AAK1 INHIBITOR AND USE THEREOF” (Xizang Haisco Pharmaceutical Co., Ltd., priority 2021, published 2024)
